Test results published in patent US11891634B2, “PDE5A destabilizing domains” (The Board of Trustees of the Leland Stanford Junior …, priority 2017, dated 2024).

What was measured:
Format in all cases: cell-based, human
[1] = test system: HCT 116 cells transduced with the PDE5A DD derived GFP constructs; assay: Response to Vardenafil, GFP expression by FACS in HCT116; settings: for MFI / Stabilization ratio with Vardenafil: 48 hours, HCT116; for Basal: Table 15, MFI with DMSO / parental HCT116, Vardenafil experiment
Outline: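 HCT116 cells stably carrying lentiviral AcGFP fusions of PDE5A (535-860) mutants, sorted on mCherry, got DMSO or Vardenafil (10 μM, or 0.002–30 μM) for 48 h, and GFP MFI was read by flow cytometry. Basal expression is untreated GFP over parental autofluorescence; the stabilization ratio is treated over untreated MFI.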

[2] = test system: HCT 116 cells transduced with the PDE5A DD derived GFP constructs; assay: Response to Tadalafil, GFP expression by FACS in HCT116; settings: for MFI / Stabilization ratio with Tadalafil: 48 hours, HCT116
Outline: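 HCT116 cells stably transduced (mCherry-sorted) with lentiviral PDE5A DD–AcGFP constructs, exposed to DMSO or Tadalafil 0.01–100 μM for 48 hrs. GFP mean fluorescence by FACS; stabilization ratio = ligand vs no-ligand signal, basal expression = no-ligand signal vs parental autofluorescence.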

[3] = test system: HCT116 cells transduced with the constructs; assay: Response to Sildenafil, GFP expression by flow cytometry in HCT116; settings: for MFI / Stabilization ratio with Sildenafil: 48 hours, HCT116
Outline: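 HCT116 cells stably expressing AcGFP-fused destabilizing domains from a lentiviral mCherry-marked vector (sorted on mCherry) were exposed to sildenafil at 0.01–100 μM for 48 hours. GFP mean fluorescence intensity was measured by flow cytometry.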

## PDE5AC (#43): AcGFP fused to C-terminal DD 535-860 of PDE5A (Q589R, N609H, Y676N, A762S), SEQ ID NO. 29
[1]; DMSO (no Vardenafil)
  MFI: 12047
[1]; Table 10, GFP signal without ligand / auto fluorescence of parental HCT-116
  Basal (DMSO/Parental): 8.7
[1]
  Basal: 6.17
[1]; Vardenafil 0.002 μM vs DMSO
  Stabilization ratio with Vardenafil: 1.1
[1]; Vardenafil 0.002 μM
  MFI: 13329
[1]; Vardenafil 0.005 μM
  MFI: 17702
[1]; Vardenafil 0.014 μM vs DMSO
  Stabilization ratio with Vardenafil: 2.8
[1]; Vardenafil 0.014 μM
  MFI: 33483
[1]; Vardenafil 0.041 μM vs DMSO
  Stabilization ratio with Vardenafil: 4.6
[1]; Vardenafil 0.041 μM
  MFI: 55300
[1]; Vardenafil 0.123 μM vs DMSO
  Stabilization ratio with Vardenafil: 5.8
[1]; Vardenafil 0.123 μM
  MFI: 70385
[1]; Vardenafil 0.370 μM vs DMSO
  Stabilization ratio with Vardenafil: 6.5
[1]; Vardenafil 0.370 μM
  MFI: 78215
[1]; Vardenafil 1.111 μM vs DMSO
  Stabilization ratio with Vardenafil: 6.9
[1]; Vardenafil 1.111 μM
  MFI: 83052
[1]; Vardenafil 3.333 μM vs DMSO
  Stabilization ratio with Vardenafil: 7.4
[1]; Vardenafil 3.333 μM
  MFI: 88707
[1]; Vardenafil 10 μM vs DMSO
  Stabilization ratio with Vardenafil: 7.1
[1]; Vardenafil 10 μM
  MFI: 85867
[1]; Vardenafil 30 μM vs DMSO
  Stabilization ratio with Vardenafil: 7.2
[1]; Vardenafil 30 μM
  MFI: 86318
[2]; DMSO (no Tadalafil)
  MFI: 10998
[2]; Table 21, MFI with DMSO / parental HCT116, Tadalafil experiment
  Basal expression: 8.59
[2]; Tadalafil 0.01 μM vs DMSO
  Stabilization ratio with Tadalafil: 1.0
[2]; Tadalafil 0.01 μM
  MFI: 11444
[2]; Tadalafil 0.02 μM vs DMSO
  Stabilization ratio with Tadalafil: 1.0
[2]; Tadalafil 0.02 μM
  MFI: 11479
[2]; Tadalafil 0.05 μM vs DMSO
  Stabilization ratio with Tadalafil: 1.1
[2]; Tadalafil 0.05 μM
  MFI: 11764
[2]; Tadalafil 0.14 μM vs DMSO
  Stabilization ratio with Tadalafil: 1.2
[2]; Tadalafil 0.14 μM
  MFI: 13429
[2]; Tadalafil 0.41 μM vs DMSO
  Stabilization ratio with Tadalafil: 1.7
[2]; Tadalafil 0.41 μM
  MFI: 18940
[2]; Tadalafil 1.23 μM vs DMSO
  Stabilization ratio with Tadalafil: 2.9
[2]; Tadalafil 1.23 μM
  MFI: 32204
[2]; Tadalafil 3.7 μM vs DMSO
  Stabilization ratio with Tadalafil: 4.5
[2]; Tadalafil 3.7 μM
  MFI: 49646
[2]; Tadalafil 11.11 μM vs DMSO
  Stabilization ratio with Tadalafil: 5.8
[2]; Tadalafil 11.11 μM
  MFI: 64186
[2]; Tadalafil 33.33 μM vs DMSO
  Stabilization ratio with Tadalafil: 6.8
[2]; Tadalafil 33.33 μM
  MFI: 74446
[2]; Tadalafil 100 μM vs DMSO
  Stabilization ratio with Tadalafil: 6.9
[2]; Tadalafil 100 μM
  MFI: 76281
[3]; DMSO (no Sildenafil)
  MFI: 11147
[3]; Sildenafil 0.01 μM vs DMSO
  Stabilization ratio with Sildenafil: 1.1
[3]; Sildenafil 0.01 μM
  MFI: 11962
[3]; Sildenafil 0.02 μM vs DMSO
  Stabilization ratio with Sildenafil: 1.1
[3]; Sildenafil 0.02 μM
  MFI: 11940
[3]; Sildenafil 0.05 μM vs DMSO
  Stabilization ratio with Sildenafil: 1.4
[3]; Sildenafil 0.05 μM
  MFI: 15203
[3]; Sildenafil 0.14 μM
  MFI: 24319
[3]; Sildenafil 0.41 μM vs DMSO
  Stabilization ratio with Sildenafil: 3.6
[3]; Sildenafil 0.41 μM
  MFI: 40470
[3]; Sildenafil 1.23 μM vs DMSO
  Stabilization ratio with Sildenafil: 5.2
[3]; Sildenafil 1.23 μM
  MFI: 57723
[3]; Sildenafil 3.70 μM vs DMSO
  Stabilization ratio with Sildenafil: 6.6
[3]; Sildenafil 3.70 μM
  MFI: 73400
[3]; Sildenafil 11.11 μM vs DMSO
  Stabilization ratio with Sildenafil: 6.9
[3]; Sildenafil 11.11 μM
  MFI: 76900
[3]; Sildenafil 33.33 μM vs DMSO
  Stabilization ratio with Sildenafil: 8.5
[3]; Sildenafil 33.33 μM
  MFI: 94863
[3]; Sildenafil 100.00 μM vs DMSO
  Stabilization ratio with Sildenafil: 5.1
[3]; Sildenafil 100.00 μM
  MFI: 56552
[3]; Table 26, MFI with DMSO / parental HCT116, Sildenafil experiment
  Basal expression: 8.7

## PDE5AC (#69): AcGFP fused to C-terminal DD 535-860 of PDE5A (Q589R, N636S, D687A, D764N, S815C), SEQ ID NO. 30
[1]; DMSO (no Vardenafil)
  MFI: 9466
[1]
  Basal: 4.84
[1]; Vardenafil 0.002 μM vs DMSO
  Stabilization ratio with Vardenafil: 1.1
[1]; Vardenafil 0.002 μM
  MFI: 10817
[1]; Vardenafil 0.005 μM
  MFI: 13682
[1]; Vardenafil 0.014 μM vs DMSO
  Stabilization ratio with Vardenafil: 2.9
[1]; Vardenafil 0.014 μM
  MFI: 27457
[1]; Vardenafil 0.041 μM vs DMSO
  Stabilization ratio with Vardenafil: 3.4
[1]; Vardenafil 0.041 μM
  MFI: 32264
[1]; Vardenafil 0.123 μM vs DMSO
  Stabilization ratio with Vardenafil: 5.3
[1]; Vardenafil 0.123 μM
  MFI: 49884
[1]; Vardenafil 0.370 μM vs DMSO
  Stabilization ratio with Vardenafil: 7.9
[1]; Vardenafil 0.370 μM
  MFI: 74730
[1]; Vardenafil 1.111 μM vs DMSO
  Stabilization ratio with Vardenafil: 6.6
[1]; Vardenafil 1.111 μM
  MFI: 62065
[1]; Vardenafil 3.333 μM vs DMSO
  Stabilization ratio with Vardenafil: 7.0
[1]; Vardenafil 3.333 μM
  MFI: 66625
[1]; Vardenafil 10 μM vs DMSO
  Stabilization ratio with Vardenafil: 6.8
[1]; Vardenafil 10 μM
  MFI: 64380
[1]; Vardenafil 30 μM vs DMSO
  Stabilization ratio with Vardenafil: 2.4
[1]; Vardenafil 30 μM
  MFI: 22775
[2]; DMSO (no Tadalafil)
  MFI: 8822
[2]; Tadalafil 0.01 μM vs DMSO
  Stabilization ratio with Tadalafil: 1.1
[2]; Tadalafil 0.01 μM
  MFI: 9337
[2]; Tadalafil 0.02 μM vs DMSO
  Stabilization ratio with Tadalafil: 1.2
[2]; Tadalafil 0.02 μM
  MFI: 10353
[2]; Tadalafil 0.05 μM vs DMSO
  Stabilization ratio with Tadalafil: 1.4
[2]; Tadalafil 0.05 μM
  MFI: 12365
[2]; Tadalafil 0.14 μM
  MFI: 19039
[2]; Tadalafil 0.41 μM vs DMSO
  Stabilization ratio with Tadalafil: 3.7
[2]; Tadalafil 0.41 μM
  MFI: 32821
[2]; Tadalafil 1.23 μM vs DMSO
  Stabilization ratio with Tadalafil: 5.9
[2]; Tadalafil 1.23 μM
  MFI: 52033
[2]; Tadalafil 3.7 μM vs DMSO
  Stabilization ratio with Tadalafil: 7.1
[2]; Tadalafil 3.7 μM
  MFI: 62558
[2]; Tadalafil 11.11 μM vs DMSO
  Stabilization ratio with Tadalafil: 7.9
[2]; Tadalafil 11.11 μM
  MFI: 69440
[2]; Tadalafil 33.33 μM vs DMSO
  Stabilization ratio with Tadalafil: 7.7
[2]; Tadalafil 33.33 μM
  MFI: 68289
[2]; Tadalafil 100 μM
  MFI: 67259
[3]; DMSO (no Sildenafil)
  MFI: 9575
[3]; Sildenafil 0.01 μM vs DMSO
  Stabilization ratio with Sildenafil: 1.0
[3]; Sildenafil 0.01 μM
  MFI: 9574
[3]; Sildenafil 0.02 μM vs DMSO
  Stabilization ratio with Sildenafil: 1.2
[3]; Sildenafil 0.02 μM
  MFI: 11755
[3]; Sildenafil 0.05 μM vs DMSO
  Stabilization ratio with Sildenafil: 1.2
[3]; Sildenafil 0.05 μM
  MFI: 11944
[3]; Sildenafil 0.14 μM
  MFI: 19733
[3]; Sildenafil 0.41 μM vs DMSO
  Stabilization ratio with Sildenafil: 3.1
[3]; Sildenafil 0.41 μM
  MFI: 30090
[3]; Sildenafil 1.23 μM vs DMSO
  Stabilization ratio with Sildenafil: 4.6
[3]; Sildenafil 1.23 μM
  MFI: 44180
[3]; Sildenafil 3.70 μM vs DMSO
  Stabilization ratio with Sildenafil: 5.5
[3]; Sildenafil 3.70 μM
  MFI: 52782
[3]; Sildenafil 11.11 μM vs DMSO
  Stabilization ratio with Sildenafil: 6.2
[3]; Sildenafil 11.11 μM
  MFI: 59723
[3]; Sildenafil 33.33 μM vs DMSO
  Stabilization ratio with Sildenafil: 6.8
[3]; Sildenafil 33.33 μM
  MFI: 65183
[3]; Sildenafil 100.00 μM vs DMSO
  Stabilization ratio with Sildenafil: 5.4
[3]; Sildenafil 100.00 μM
  MFI: 51774
